Assay results as given in US20240226288A1, “TRANSPLANT MATERIAL AND KIDNEY TRANSPLANT KIT” (THE JIKEI UNIVERSITY, priority 2021, published 2024).

Assay: Monitoring of recipient monkeys by blood test during immunosuppressant administration
Format: in vivo, cynomolgus monkey
Details: blood test after start of administration
Method: Regarding the start day, the day of transplantation is represented by (0), and the preceding days are represented by the minus sign (−). Specifically, in the therapy, tacrolimus (0.02 mg/kg im×2/day; day −9 from start day), abatacept (50 mg/kg iv×1/week; day 7 from start day), and mycophenolate mofetil (40 mg/kg po×2/day; day −5 from start day) were used. The administration of methylprednisolone (10 mg/kg iv) was also carried out from day 0 from the start day, which was changed to oral administration (5 mg/kg) from the next day. […] Furthermore, thymoglobulin (10 mg/kg iv on day 3), rituximab (10 mg/kg iv on day 2), tocilizumab (10 mg/kg sc on day −1, 7, and 14), and etanercept (0.5 mg/kg sc on day 0, 3, 6, and 10) were administered. The concentrations of tacrolimus and mycophenolate mofetil in blood were measured twice a week, and the dose was appropriately adjusted based on the target trough level (TAC trough level: 15 to 20 ng/mL on day −9 to 2; 9 to 12 ng/ml from day 3, MMF trough level: 4 to 6 μg/mL).
The daily dietary status and activity of the recipient monkeys were monitored, and support was provided through supplementation as needed. Furthermore, the systemic condition of the monkeys was evaluated by the measurement of body weight. body temperature, and SpO2 as well as blood sampling conducted twice a week. […]

absorption: confirmed
Structure (SMILES): COc1c(C)c2c(c(O)c1C/C=C(\C)CCC(=O)OCCN1CCOCC1)C(=O)OC2 [MMF, Mycophenolate mofetil]
